Reference: patent US7728020B2, “Amino acid derivatives” (Novartis AG, priority 2004, dated 2010)

Columns and labels:
[1] = tested on: peripheral blood lymphocytes; assay: Blood lymphocyte depletion; type: in vivo; settings: rats, 3.2 mg/kg p.o. after 6 h
Protocol: B. In vivo: Blood Lymphocyte Depletion
A compound of formula I or the vehicle is administered orally by gavage to rats. Tail blood for hematological monitoring is obtained on day −1 to give the baseline individual values, and at 2, 6, 24, 48 and 72 hours after application. In this assay, the compounds of formula I deplete peripheral blood lymphocytes when administered at a dose of 0.03 to 3 mg/kg. For example, following results are obtained: depletion of peripheral blood lymphocytes by more than 50%.

[2] = molecular target: T1, human S1P receptor EDG-1 (S1P1) (Homo sapiens, UniProt P21453); assay: GTP[γ-35S] binding SPA, S1P receptor profiling (S1P1); type: biochemical; design: key to S1P1 mode of action: Agon = agonist; settings: GTP[γ-35S] SPA
T1 construct: expressed in transfected cells
T1 sequence (P21453 whole entry): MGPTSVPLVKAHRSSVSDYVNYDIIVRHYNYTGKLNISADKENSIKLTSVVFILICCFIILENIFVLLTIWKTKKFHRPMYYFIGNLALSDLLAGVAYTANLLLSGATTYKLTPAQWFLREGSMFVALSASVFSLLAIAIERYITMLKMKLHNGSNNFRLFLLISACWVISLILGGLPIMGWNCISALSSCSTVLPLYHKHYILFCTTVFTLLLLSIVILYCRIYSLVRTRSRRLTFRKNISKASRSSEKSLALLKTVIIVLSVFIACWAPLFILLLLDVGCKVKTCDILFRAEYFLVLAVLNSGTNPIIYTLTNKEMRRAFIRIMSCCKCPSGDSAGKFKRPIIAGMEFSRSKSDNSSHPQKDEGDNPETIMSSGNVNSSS
Protocol: (§1) Sphingosine-1-phosphate (SIP) Receptor Profiling
(§2) Agonist activities of compounds are tested on the human S1P receptors EDG-1 (S1P1), EDG-3 (S1P3), EDG-5 (S1P2), EDG-6 (S1P4) and EDG-8 (S1P5). […] The assay technology used is SPA (scintillation proximity based assay). Briefly, DMSO dissolved compounds are serially diluted and added to SPA-based (Amersham-Pharmacia) immobilised S1P receptor expressing membrane protein (10-20 μg/well) in the presence of 50 mM Hepes, 100 mM NaCl, 10 mM MgCl2, 10 μM GDP, 0.1% fat free BSA and 0.2 nM GTP [γ^35S] (1200 Ci/mmol). After incubation in 96 well microtiterplates at RT for 120 min, unbound GTP [γ^35S] is separated by a centrifugation step. Luminescence of SPA beads triggered by membrane bound GTP [γ^35S] is quantified with a TOPcount plate reader (Packard). EC50s are calculated using standard curve fitting software. In this assay, the compounds of formula I have a binding affinity to S1P1 receptor <50 nM.

[3] = molecular target: T2, human S1P receptor EDG-3 (S1P3) (Homo sapiens, UniProt Q99500); assay: GTP[γ-35S] binding SPA, S1P receptor profiling (S1P3); type: biochemical; design: key to S1P3 mode of action: Agon = agonist; settings: GTP[γ-35S] SPA
T2 construct: expressed in transfected cells
T2 sequence (Q99500 whole entry): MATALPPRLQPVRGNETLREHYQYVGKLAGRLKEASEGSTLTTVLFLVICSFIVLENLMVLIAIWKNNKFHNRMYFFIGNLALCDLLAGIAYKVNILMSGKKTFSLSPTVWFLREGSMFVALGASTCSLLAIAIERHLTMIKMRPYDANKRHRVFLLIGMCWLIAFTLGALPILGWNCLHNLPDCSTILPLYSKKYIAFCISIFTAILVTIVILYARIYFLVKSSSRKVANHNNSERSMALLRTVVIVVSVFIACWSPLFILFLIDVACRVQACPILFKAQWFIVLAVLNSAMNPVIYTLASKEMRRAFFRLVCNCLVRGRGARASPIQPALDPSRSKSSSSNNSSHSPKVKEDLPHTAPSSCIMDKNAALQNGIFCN
Protocol: as §1, §2

[4] = molecular target: T3, human S1P receptor EDG-8 (S1P5) (Homo sapiens, UniProt Q9H228); assay: GTP[γ-35S] binding SPA, S1P receptor profiling (S1P5); type: biochemical; design: key to S1P5 mode of action: Agon = agonist; settings: GTP[γ-35S] SPA
T3 construct: expressed in transfected cells
T3 sequence (Q9H228 whole entry): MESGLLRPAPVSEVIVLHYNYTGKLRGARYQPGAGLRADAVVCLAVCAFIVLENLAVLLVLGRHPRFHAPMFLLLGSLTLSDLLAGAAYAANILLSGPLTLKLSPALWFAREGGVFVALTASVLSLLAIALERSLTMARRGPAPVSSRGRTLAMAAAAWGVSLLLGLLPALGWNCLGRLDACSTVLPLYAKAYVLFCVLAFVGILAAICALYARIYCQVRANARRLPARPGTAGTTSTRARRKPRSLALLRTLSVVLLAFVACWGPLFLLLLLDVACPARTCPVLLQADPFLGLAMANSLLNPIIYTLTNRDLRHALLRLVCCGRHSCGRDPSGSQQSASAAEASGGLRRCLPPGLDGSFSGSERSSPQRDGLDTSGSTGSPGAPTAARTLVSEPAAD
Protocol: as §1, §2

[5] = molecular target: T4, human S1P receptor EDG-6 (S1P4) (Homo sapiens, UniProt O95977); assay: GTP[γ-35S] binding SPA, S1P receptor profiling (S1P4); type: biochemical; design: key to S1P4 mode of action: Agon = agonist; settings: GTP[γ-35S] SPA
T4 construct: expressed in transfected cells
T4 sequence (O95977 1-384): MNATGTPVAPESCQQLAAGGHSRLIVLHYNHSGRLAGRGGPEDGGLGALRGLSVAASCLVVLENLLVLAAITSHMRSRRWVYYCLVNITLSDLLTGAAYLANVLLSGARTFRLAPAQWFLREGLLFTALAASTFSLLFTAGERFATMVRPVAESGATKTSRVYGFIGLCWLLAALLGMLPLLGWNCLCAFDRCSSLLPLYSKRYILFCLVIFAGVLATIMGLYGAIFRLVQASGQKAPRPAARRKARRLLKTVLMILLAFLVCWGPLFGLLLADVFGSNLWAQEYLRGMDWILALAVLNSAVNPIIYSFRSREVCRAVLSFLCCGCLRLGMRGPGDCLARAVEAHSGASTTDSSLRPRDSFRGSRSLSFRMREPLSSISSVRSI
Protocol: as §1, §2

[6] = membranes of transfected CHO or RH7777 cells

In the case of CCCCCCCOc1ccc(CC[C@@](C)(N)CC(=O)O)cc1 [Example 1, (R)-3-Amino-5-(4-heptyloxy-phenyl)-3-methyl-pentanoic acid], the “depletion of peripheral blood lymphocytes” value [1] is reported as “more than 50%”, the “S1P1 mode of action” value [2] is reported as “Agon” and the EC50 [2, 6] is reported as 0.011 µM. For the same compound, the “S1P3 mode of action” value [3] was “Agon”, the EC50 [3, 6] was 0.209 µM and the “S1P5 mode of action” value [4] was “Agon”. For the same compound, the EC50 [4, 6] was 0.203 µM, the “S1P4 mode of action” value [5] was “Agon” and the EC50 [5, 6] was 0.117 µM.
